Reference: patent publication US20150189844A1, “METHOD FOR […] RECOMBINATION” (Biogemma, priority 2012, published 2015)
Read-outs that look alike come from different tables or passages of the source.

Experiments:
[1] = system: I-SceI:GR
Experimental: (§1) Embryos isolated from selfed plants containing the TL and DL were placed onto a regeneration medium according to Ishida et al. (Ishida et al., 1996) lacking the kanamycin selective agent. For first experiment, LS-AS medium was complemented by 0, 30 or 50 μM dexamethasone and after one week transferred sequentially to LSD1.5, LSZ and ½LSF medium lacking dexamethasone and containing 50 mg·L−1 of kanamycin. For the second experiment, callus was developed for 3 days on LS-AS, 1 week on LSD1.5 and 3 weeks on LSZ medium. Then, callus was cultivated 1 week on LSZ medium complemented by 0 μM, 30 μM or 50 μM of dexamethasone and selected for 2 weeks on LSZ and then ½ LSF medium complemented by 50 mg·L−1 of kanamycin. GFP fluorescence of callus was visualized under the fluorescence stereomicroscope (Leica MZ16F) with a GFP2 filter.
Plant regeneration from maize leaves has not been reported but calli derived from immature maize embryos are routinely used to regenerate plants (Lu et al., 1983). Embryos isolated from immature kernels of selfed F2 plants containing the TL and the DL were placed on callus induction medium with dexamethasone at 0 μM (control), 30 μM or 50 μM.

[2] = system: I-SceI:GR; conditions: one week
Experimental: as §1

## C[C@@H]1C[C@H]2[C@@H]3CCC4=CC(=O)C=C[C@]4(C)[C@@]3(F)[C@@H](O)C[C@]2(C)[C@@]1(O)C(=O)CO [Dexamethasone, dexamethasone]
[1]; TL1 × DL, 30 μM
  GT Frequency, discovered kanamycin resistant events/extracted embryos: 0.39%
[1]; TL1 × DL, 50 μM
  GT Frequency, discovered kanamycin resistant events/extracted embryos: 0.55%
[1]; TL1 × DL, 181 extracted embryos, 50 μM
  Number of kanamycin resistant events: 1
[1]; TL1 × DL, 255 extracted embryos, 30 μM in callus induction medium
  Number of kanamycin resistant events: 1
[1]; TL2 × DL, 30 μM
  GT Frequency, discovered kanamycin resistant events/extracted embryos: 0.53%
[1]; TL2 × DL, 50 μM
  GT Frequency, discovered kanamycin resistant events/extracted embryos: 0.27%
[1]; TL2 × DL, 374 extracted embryos, 50 μM
  Number of kanamycin resistant events: 1
[1]; TL2 × DL, 563 extracted embryos, 30 μM
  Number of kanamycin resistant events: 3
[2]; TL1/DL calli, 30 μM
  Mutations in TL I-SceI site: 76
[2]; TL1/DL calli, 50 μM
  Mutations in TL I-SceI site: 76
[2]; TL2/DL calli, 30 μM
  Mutations in TL I-SceI site: 15
[2]; TL2/DL calli, 50 μM
  Mutations in TL I-SceI site: 36
